Assay results published in ChEMBL document CHEMBL3885861, “Open TG-GATES”.

Species on record: Rattus norvegicus
Assay: Open TG-GATES - Regimen: Daily Repeat
Type: toxicity, organism-based, Sprague-Dawley
Design: regimen Daily Repeat, gender Male, age 6 weeks
Details: in vivo, iv, route intravenous injection; for Bas / Eos / Fbg / Ht / Lym / MCH / MCHC / MCV / Mono / PT / RBC / Ret / WBC: tissue Blood; for KIDNEY_L / KIDNEY_R / KIDNEY_TOTAL: tissue Kidney; for ALP / AST / CRE / DBIL / GLC / IP / K / Na / PL / RALB / TBIL / TG / TP / gamma-GTP / TC: tissue Plasma
[1] = 0 mg/kg, 72 h, dose level Control, time 3 day
[2] = 0 mg/kg, […], dose level Control, time 7 day
[3] = 0 mg/kg, […], dose level Control, time 14 day
[4] = 0 mg/kg, […], dose level Control, time 28 day
[5] = 1 mg/kg, 72 h, dose level High, time 3 day
[6] = 1 mg/kg, […], dose level High, time 7 day
[7] = 1 mg/kg, […], dose level High, time 14 day
[8] = 1 mg/kg, […], dose level High, time 28 day

COc1cccc2c1C(=O)c1c(O)c3c(c(O)c1C2=O)C[C@@](O)(C(=O)CO)C[C@@H]3O[C@H]1C[C@H](N)[C@H](O)[C@H](C)O1 [DOXORUBICIN]
TERMINAL_BW [1]: 230.2 g | Bas [1]: 0% | Eos [1]: 0.8% | Fbg [1]: 276.4 mg/dL | Ht [1]: 37.6% | Lym [1]: 80% | MCH [1]: 21.3 pg | MCHC [1]: 34.2% | MCV [1]: 62.3 fL | Mono [1]: 2.8% | PT [1]: 16.3 s | RBC [1]: 603.8 x10_4/ul | Ret [1]: 5.8% | WBC [1]: 107.3 x10_2/uL | KIDNEY_L [1]: 1 g | KIDNEY_R [1]: 1 g | KIDNEY_TOTAL [1]: 2 g | ALP [1]: 1504.4 IU/L | AST [1]: 70.6 IU/L | CRE [1]: 0.2 mg/dL | DBIL [1]: 0.002 mg/dL | GLC [1]: 193.8 mg/dL | IP [1]: 6.9 mg/dL | K [1]: 4.8 meq/L | Na [1]: 141 meq/L | PL [1]: 141 mg/dL | RALB [1]: 3 g/dL | TBIL [1]: 0.006 mg/dL | TG [1]: 86.6 mg/dL | TP [1]: 5.4 g/dL | gamma-GTP [1]: 1.4 IU/L | TERMINAL_BW [2]: 251.1 g | TERMINAL_BW [3]: 307.3 g | TERMINAL_BW [4]: 382.5 g | Bas [2]: 0% | Eos [2]: 0.6% | Fbg [2]: 285.8 mg/dL | Ht [2]: 38.4% | Lym [2]: 77.4% | MCH [2]: 20.8 pg | MCHC [2]: 35.3% | MCV [2]: 58.9 fL | Mono [2]: 2.8% | PT [2]: 16.5 s | RBC [2]: 652.8 x10_4/ul | Ret [2]: 5.5% | WBC [2]: 121 x10_2/uL | Bas [3]: 0% | Eos [3]: 0.8% | Fbg [3]: 305.6 mg/dL | Ht [3]: 39.4% | Lym [3]: 82.2% | MCH [3]: 20.5 pg | MCHC [3]: 35.8% | MCV [3]: 57 fL | Mono [3]: 2.2% | PT [3]: 16.1 s | RBC [3]: 691.8 x10_4/ul | Ret [3]: 4.8% | WBC [3]: 124.7 x10_2/uL | Bas [4]: 0% | Eos [4]: 1.4% | Fbg [4]: 305.6 mg/dL | Ht [4]: 42.7% | Lym [4]: 85.6% | MCH [4]: 19.6 pg | MCHC [4]: 36.3% | MCV [4]: 54 fL | Mono [4]: 2% | PT [4]: 16.4 s | RBC [4]: 792.2 x10_4/ul | Ret [4]: 2.9% | WBC [4]: 144.2 x10_2/uL | KIDNEY_L [2]: 1.1 g | KIDNEY_R [2]: 1.1 g | KIDNEY_TOTAL [2]: 2.2 g | KIDNEY_L [3]: 1.2 g | KIDNEY_R [3]: 1.2 g | KIDNEY_TOTAL [3]: 2.3 g | KIDNEY_L [4]: 1.4 g | KIDNEY_R [4]: 1.4 g | KIDNEY_TOTAL [4]: 2.7 g | ALP [2]: 1305.8 IU/L | AST [2]: 67 IU/L | CRE [2]: 0.2 mg/dL | DBIL [2]: 0 mg/dL | GLC [2]: 188.2 mg/dL | IP [2]: 7.2 mg/dL | K [2]: 4.5 meq/L | Na [2]: 142.2 meq/L | RALB [2]: 2.9 g/dL | TBIL [2]: 0.014 mg/dL | TC [2]: 74.4 mg/dL | TG [2]: 100.2 mg/dL | TP [2]: 5.3 g/dL | gamma-GTP [2]: 1.2 IU/L | ALP [3]: 1239.2 IU/L | AST [3]: 59.2 IU/L | CRE [3]: 0.2 mg/dL | DBIL [3]: 0 mg/dL | GLC [3]: 203 mg/dL | IP [3]: 6.9 mg/dL | K [3]: 4.4 meq/L | Na [3]: 140.8 meq/L | RALB [3]: 3.1 g/dL | TBIL [3]: 0.018 mg/dL | TC [3]: 69 mg/dL | TG [3]: 129.2 mg/dL | TP [3]: 5.7 g/dL | gamma-GTP [3]: 2.6 IU/L | ALP [4]: 795.8 IU/L | AST [4]: 64.8 IU/L | CRE [4]: 0.3 mg/dL | DBIL [4]: 0 mg/dL | GLC [4]: 186.6 mg/dL | IP [4]: 6.7 mg/dL | K [4]: 4.1 meq/L | Na [4]: 140.6 meq/L | PL [4]: 130.8 mg/dL | RALB [4]: 3.1 g/dL | TBIL [4]: 0.006 mg/dL | TC [4]: 65 mg/dL | TG [4]: 96.2 mg/dL | TP [4]: 6.1 g/dL | gamma-GTP [4]: 1 IU/L | TERMINAL_BW [5]: 213.7 g | Bas [5]: 0% | Eos [5]: 1% | Fbg [5]: 293 mg/dL | Ht [5]: 37.6% | Lym [5]: 83.6% | MCH [5]: 21.4 pg | MCHC [5]: 35% | MCV [5]: 61.1 fL | Mono [5]: 2.4% | PT [5]: 16.3 s | RBC [5]: 616 x10_4/ul | Ret [5]: 1% | WBC [5]: 40.5 x10_2/uL | KIDNEY_L [5]: 0.9 g | KIDNEY_R [5]: 0.9 g | KIDNEY_TOTAL [5]: 1.8 g | ALP [5]: 1562.4 IU/L | AST [5]: 64.4 IU/L | CRE [5]: 0.2 mg/dL | DBIL [5]: 0 mg/dL | GLC [5]: 194.4 mg/dL | IP [5]: 7 mg/dL | K [5]: 4.3 meq/L | Na [5]: 141.4 meq/L | RALB [5]: 3.1 g/dL | TBIL [5]: 0.014 mg/dL | TC [5]: 79 mg/dL | TG [5]: 78.2 mg/dL | TP [5]: 5.6 g/dL | gamma-GTP [5]: 1.4 IU/L | TERMINAL_BW [6]: 236 g | TERMINAL_BW [7]: 244.4 g | TERMINAL_BW [8]: 221.9 g | Bas [6]: 0% | Eos [6]: 1.4% | Fbg [6]: 307.2 mg/dL | Ht [6]: 34.1% | Lym [6]: 84.2% | MCH [6]: 20.5 pg | MCHC [6]: 36.1% | MCV [6]: 56.8 fL | Mono [6]: 2.4% | PT [6]: 16.1 s | RBC [6]: 600.6 x10_4/ul | Ret [6]: 0.06% | WBC [6]: 32.9 x10_2/uL | Bas [7]: 0% | Eos [7]: 0.4% | Fbg [7]: 315.6 mg/dL | Ht [7]: 31.5% | Lym [7]: 76.8% | MCH [7]: 20.6 pg | MCHC [7]: 37.1% | MCV [7]: 55.7 fL | Mono [7]: 1% | RBC [7]: 566.8 x10_4/ul | Ret [7]: 0.04% | WBC [7]: 14.2 x10_2/uL | Bas [8]: 0% | Eos [8]: 0.5% | Fbg [8]: 669 mg/dL | Lym [8]: 31.5% | MCH [8]: 18.1 pg | MCHC [8]: 38% | MCV [8]: 47.6 fL | Mono [8]: 8% | PT [8]: 15.1 s | RBC [8]: 301.5 x10_4/ul | Ret [8]: 0.2% | WBC [8]: 44.9 x10_2/uL | KIDNEY_L [6]: 1 g | KIDNEY_R [6]: 1 g | KIDNEY_TOTAL [6]: 2 g | KIDNEY_L [7]: 1 g | KIDNEY_R [7]: 1 g | KIDNEY_TOTAL [7]: 2 g | KIDNEY_L [8]: 1.4 g | KIDNEY_R [8]: 1.4 g | KIDNEY_TOTAL [8]: 2.8 g | ALP [6]: 963 IU/L | AST [6]: 66.6 IU/L | CRE [6]: 0.2 mg/dL | DBIL [6]: 0 mg/dL | GLC [6]: 199.6 mg/dL | IP [6]: 7.3 mg/dL | K [6]: 4.5 meq/L | Na [6]: 142.8 meq/L | PL [6]: 170.4 mg/dL | RALB [6]: 3 g/dL | TBIL [6]: 0.018 mg/dL | TC [6]: 88.8 mg/dL | TG [6]: 110.2 mg/dL | TP [6]: 5.6 g/dL | gamma-GTP [6]: 1.6 IU/L | ALP [7]: 635.6 IU/L | AST [7]: 56.4 IU/L | CRE [7]: 0.2 mg/dL | DBIL [7]: 0.002 mg/dL | GLC [7]: 200.8 mg/dL | K [7]: 4.1 meq/L | Na [7]: 142 meq/L | RALB [7]: 2.9 g/dL | TBIL [7]: 0.032 mg/dL | TC [7]: 90.8 mg/dL | TG [7]: 110.4 mg/dL | TP [7]: 5.4 g/dL | gamma-GTP [7]: 1.4 IU/L | ALP [8]: 339 IU/L | AST [8]: 39.5 IU/L | CRE [8]: 0.2 mg/dL | DBIL [8]: 0 mg/dL | GLC [8]: 197 mg/dL | IP [8]: 5.6 mg/dL | K [8]: 3.9 meq/L | Na [8]: 141.5 meq/L | PL [8]: 357.5 mg/dL | RALB [8]: 1.6 g/dL | TBIL [8]: 0 mg/dL | TC [8]: 233 mg/dL | TG [8]: 309 mg/dL | TP [8]: 4.5 g/dL | gamma-GTP [8]: 14.5 IU/L
